Reference: ChEMBL document CHEMBL1201862, “PubChem BioAssay data set” (2004)
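Cultured in 96-well plates, cells were exposed to test compound for 48 hours across five concentrations. GI50 is the concentration that inhibits growth by half.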 Activity calls are given as the source filed them. Rule as the data show it: active = GI50 up to about 1.1 µM and inactive = higher.

Tests used:
Assay in all cases: NCI-60 cell line screen, 48 h
UACC-62 = tested on: UACC-62
SN12C = tested on: SN12C
NCI-H226 = tested on: NCI-H226
Hs-578T = tested on: Hs-578T
COLO 205 = tested on: COLO 205
UACC-257 = tested on: UACC-257
HCT-15 = tested on: HCT-15
OVCAR-8 = tested on: OVCAR-8
CAKI-1 = tested on: CAKI-1
PC-3 = tested on: PC-3
HOP-62 = tested on: HOP-62
OVCAR-5 = tested on: OVCAR-5
BT-549 = tested on: BT-549
NCI-H23 = tested on: NCI-H23
SK-MEL-2 = tested on: SK-MEL-2
K562 = tested on: K562
SK-MEL-5 = tested on: SK-MEL-5
HT-29 = tested on: HT-29
MDA-N = tested on: MDA-N
Malme-3M = tested on: Malme-3M

SMILES | GI50 (UACC-62) | GI50 (SN12C) | GI50 (NCI-H226) | GI50 (Hs-578T) | GI50 (COLO 205) | GI50 (UACC-257) | GI50 (HCT-15) | GI50 (OVCAR-8) | GI50 (CAKI-1) | GI50 (PC-3) | GI50 (HOP-62) | GI50 (OVCAR-5) | GI50 (BT-549) | GI50 (NCI-H23) | GI50 (SK-MEL-2) | GI50 (K562) | GI50 (SK-MEL-5) | GI50 (HT-29) | GI50 (MDA-N) | GI50 (Malme-3M)
CCOC(=O)[C@H]1C[C@@H](C(=O)c2ccccc2)N2N=C(c3ccc(Br)cc3)C=C[C@H]12 | > 100 µM (inactive) | > 100 µM (inactive) | > 100 µM (inactive) | > 100 µM (inactive) | > 100 µM (inactive) | > 100 µM (inactive) | > 100 µM | > 100 µM (inactive) | > 100 µM (inactive) | > 100 µM (inactive) | > 100 µM (inactive) | > 100 µM (inactive) | > 100 µM (inactive) | > 100 µM (inactive) | > 100 µM (inactive) | > 100 µM (inactive) | – | – | – | –
Cc1ccc(S(=O)(=O)NC2C(=O)c3ccccc3C(=O)C2n2ccnc2)cc1 (stereo unspecified) | 33.1 µM (inactive) | 15 µM (inactive) | > 100 µM (inactive) | > 100 µM (inactive) | 71 µM (inactive) | > 100 µM (inactive) | > 100 µM | > 100 µM (inactive) | > 100 µM (inactive) | > 100 µM (inactive) | > 100 µM (inactive) | > 100 µM (inactive) | – | 25.4 µM (inactive) | > 100 µM (inactive) | > 100 µM (inactive) | 48.5 µM (inactive) | > 100 µM (inactive) | 15.4 µM (inactive) | –
O=C(NCCCCCCNC(=O)OCCSCCn1cc(C(=O)NC(=O)OCc2ccccc2)c(=O)[nH]c1=O)OCCSCCn1cc(C(=O)NC(=O)OCc2ccccc2)c(=O)[nH]c1=O | > 100 µM (inactive) | > 100 µM (inactive) | > 100 µM (inactive) | – | > 100 µM (inactive) | > 100 µM (inactive) | > 100 µM | > 100 µM (inactive) | > 100 µM (inactive) | – | > 100 µM (inactive) | > 100 µM (inactive) | – | > 100 µM (inactive) | > 100 µM (inactive) | > 100 µM (inactive) | > 100 µM (inactive) | > 100 µM (inactive) | – | > 100 µM (inactive)
COCCOCOC(C)(C)[C@H](CCOC(C)=O)O[Si](c1ccccc1)(c1ccccc1)C(C)(C)C | 15.7 µM (inactive) | 5.77 µM (inactive) | 3.72 µM (inactive) | – | 3.44 µM (inactive) | 7.19 µM (inactive) | 20.3 µM | 11.9 µM (inactive) | 26.2 µM (inactive) | – | 23.3 µM (inactive) | 16.8 µM (inactive) | – | 10.5 µM (inactive) | 18.6 µM (inactive) | 5.75 µM (inactive) | 10.5 µM (inactive) | 12.9 µM (inactive) | – | 16.6 µM (inactive)
Cc1cc2c(=O)c3ccccc3oc2c(C#N)c1C | – | – | – | > 100 µM (inactive) | > 100 µM (inactive) | > 100 µM (inactive) | – | > 100 µM (inactive) | > 100 µM (inactive) | 40.3 µM (inactive) | > 100 µM (inactive) | > 100 µM (inactive) | – | > 100 µM (inactive) | – | > 100 µM (inactive) | > 100 µM (inactive) | 43.6 µM (inactive) | > 100 µM (inactive) | > 100 µM (inactive)
CO[C@@H](C(=O)OC1C=CC2(CC1)C(=O)N(C)c1ccccc12)c1ccccc1 (stereo partly specified) | > 100 µM (inactive) | > 100 µM (inactive) | – | – | 60 µM (inactive) | 65.3 µM (inactive) | > 100 µM | > 100 µM (inactive) | > 100 µM (inactive) | > 100 µM (inactive) | > 100 µM (inactive) | > 100 µM (inactive) | – | 76.6 µM (inactive) | > 100 µM (inactive) | 20 µM (inactive) | 34.3 µM (inactive) | 65.8 µM (inactive) | > 100 µM (inactive) | –
Cc1ccc(S(=O)(=O)NC(=O)NCCc2ccc(O)c(O)c2)cc1 | > 100 µM (inactive) | – | > 100 µM (inactive) | > 100 µM (inactive) | > 100 µM (inactive) | – | > 100 µM | 97.3 µM (inactive) | > 100 µM (inactive) | > 100 µM (inactive) | > 100 µM (inactive) | > 100 µM (inactive) | – | > 100 µM (inactive) | > 100 µM (inactive) | > 100 µM (inactive) | 37.2 µM (inactive) | > 100 µM (inactive) | – | > 100 µM (inactive)
CC(=O)O[C@H]1[C@@H]2[C@@H]3[C@@H](C[C@H]1C)[C@@H](C)CO[C@@]1(C)CC/C=C(/C)C[C@@H]2O[C@@H]31 | > 100 µM (inactive) | > 100 µM (inactive) | > 100 µM (inactive) | – | > 100 µM (inactive) | > 100 µM (inactive) | > 100 µM | > 100 µM (inactive) | > 100 µM (inactive) | – | > 100 µM (inactive) | > 100 µM (inactive) | – | > 100 µM (inactive) | > 100 µM (inactive) | > 100 µM (inactive) | > 100 µM (inactive) | > 100 µM (inactive) | – | > 100 µM (inactive)
O=C(OC[C@H]1C[C@H]2C(=O)CCC[C@H]2O1)c1ccccc1 | > 100 µM (inactive) | > 100 µM (inactive) | > 100 µM (inactive) | > 100 µM (inactive) | > 100 µM (inactive) | > 100 µM (inactive) | > 100 µM | > 100 µM (inactive) | > 100 µM (inactive) | > 100 µM (inactive) | > 100 µM (inactive) | > 100 µM (inactive) | – | > 100 µM (inactive) | > 100 µM (inactive) | > 100 µM (inactive) | > 100 µM (inactive) | > 100 µM (inactive) | > 100 µM (inactive) | –
